Test results reported in patent publication US7709002B1, “Mutated ras peptides for generation of CD8+Cytotoxic T lymphocytes” (The United States of America as represented by the …, priority 1996, dated 2010).
Where no end group is shown, it is not given here.

Experiments:
[1] = tested on: T2 cell line as target of CD8+ CTL line of RAS patient 32; test: 51Cr-release cytotoxicity of CD8+ CTL line of RAS patient 32 against peptide-pulsed T2 targets; type: cell-based, human; conditions: peptide 10 μg/ml, IVS cycle 7 (FIG. 5)
Procedure: FIG. 5. Cytolytic activity by CD8^+ CTL line of RAS patient 32 is peptide-specific. The CD8^+ CTL line of RAS patient 32 (see FIG. 3) was assayed against the T2 cell line as a target, incubated with and without different ras peptides (10 μg/ml), as shown. In parallel, the extent of NK activity was evaluated against K562 cells. Cytotoxicity was determined by ^51Cr-release, and the results expressed at different E/T ratios following IVS cycle 7. Similar results were observed using the second, independently-derived CD8^+ CTL line as described in Table 6.
IVS cycles for evaluation of CD8^+ T cell responses from HLA-A2+Patients. Freshly-thawed PBMC (from ras patients 32 and 33), derived pre-vaccination and post-third vaccination, were enriched in T lymphocytes by passage over nylon wool columns (Robbins Scientific, Sunnyvale, Calif.) and then depleted of CD4^+ T cells by negative selection via panning on anti-CD4 MAb-coated T25 flasks (Applied Immune Sciences, Santa Clara, Calif.). For the first IVS cycle, CD8^+ enriched lymphocytes (5×10^5/well) were cultured in 24-well plates with irradiated, autologous PBMC (5×10^6/well) as APC which had been preincubated for 3 hours with the appropriate mutant ras peptide ([…]) plus human β2-microglobulin (10 μg/ml) (Calbiochem, San Diego, Calif.). […] IL-2 (10 U/ml) was added 3 days later. After an additional 7 days, viable cells (2-5×10^5/well) were re-cultured by weekly stimulation with APC pre-pulsed with peptide/β2-microglobulin, and IL-2 added one day later. After the third or fourth IVS cycle, autologous PBMC were replaced with EBV-transformed, autologous BLCL (5×10^5/well) as APC. […] CTL activity was evaluated from cultures 5 to 6 days after Ag restimulation.
Cytotoxic response. Cytotoxicity was examined by a conventional ^51Cr-release assay, as described (6). Briefly, target cells (i.e. T2, C1R-A2, BLCL, K562) were radiolabeled with 200 μCi of Na2[^51Cr]04 (Amersham) for 60 minutes at 37° C., followed by thorough washing to remove unincorporated isotope. Effectors and targets (1×10^4/well) were incubated in 96-well, U-bottomed plates (Costar) at various effector target (E/T) ratios in the absence and presence of peptide (+/−monoclonal antibody (MAb) directed against CD4, CD8 or HLA-A2 molecules (clone BB7.2 from ATCC)) for up to 6 hours. After incubation, supernatants were collected using a Supernatant Collection System (Skatron, Sterling, Va.) and radioactivity measured in a γ-counter (Packard Instruments, Downers Grove, Ill.). Cytotoxic activity was defined as percent specific release of ^51Cr and determined by the equation: [(experimentalcpm−spontaneouscpm)/maximumcpm−spontaneouscpm)]×100. Results were expressed as the mean±SEM of triplicate cultures. […]

[2] = tested on: ras p21 codon 12 mutated carcinoma patients; test: Phase I vaccination of metastatic carcinoma patients with mutant ras 13-mer peptide in Detox adjuvant; type: in vivo, human; conditions: patient 32, 0.1 mg/vaccination x3 in Detox adjuvant, s.c.
Source text: Patient selection. Adult cancer patients with histologically confirmed diagnosis of adenocarcinoma of the colon, gastrointestinal tract, lung or pancreas with metastatic disease, were screened as potential candidates for this phase I clinical study. Tumor samples from these patients were examined for point mutations in the K-ras gene at codon 12 by polymerase chain reaction (PCR) of paraffin-embedded sections by methods known in the art. In addition to fulfilling all other essential inclusion criteria as specified in the FDA-approved NCI clinical protocol, those patients presenting the appropriate K-ras mutation were then selected for study entry.
Peptides and immunizations. Mutant ras 13-mer peptides used as immunogens were synthesized as clinical grade reagents under GMP conditions (Bachem, Torrance, Calif.: >97% purity by HPLC). Control and additional experimental peptides, which were used in vitro, either were prepared commercially (Bachem) or synthesized in the laboratory on an Applied Biosystems Model 432A personal peptide synthesizer (Foster City, Calif.) using Fmoc chemistry (>90% purity by HPLC). These reagent-grade products were dissolved in aqueous solution at 2 mg/ml, filter-sterilized and stored in aliquots at −70° C. The normal sequence of ras p21 reflecting positions 5-17 is […]([…]) (SEQ. ID NO. 1). […]

[3] = tested on: post-vaccine PBMC of patient 32; test: Lymphoproliferation of post-vaccine PBMC of patient 32; type: cell-based, human; conditions: multiple IVS cycles
human HLA-A2 = biological target: T1, human HLA-A2 (Homo sapiens, UniProt P04439, D140Y/D185E/D98H/E176V/E277Q/G131W/G231S/I119V/I121R/I166T/I218V/L300P/L318F/N151K/N90K/P208A/P217A/Q86G/Q94H/R138H/R169H/T345S); test: HLA-A2 binding bioassay on T2 cells (flow cytometry); conditions: T2 bioassay
T1 construct: The 174CEM.T2 cell line (“T2”), (transport deletion mutant); endogenous in cells; host or cells: 174CEM.T2 (T2) human cell line

[4] = tested on: HLA-A2+ peptide-pulsed targets; test: Generation and cytotoxicity of ras4-12(V12)-specific CD8+ CTL line from a normal HLA-A2+ donor; type: cell-based, human; conditions: wild-type printed as wild-type ras peptide
BALB/c mouse = test: Induction of MHC class I-restricted CD8+ CTL responses in the mouse; type: in vivo, mouse (BALB/c; H-2^d); conditions: H-2^d
Source text: The basis of immunogenicity, in part, was attributed to the introduction of the mutated Val12 residue, which created a dominant C-terminus anchor for MHC class I binding. The resulting CD8^+ CTL response, thus, likely reflected T cell receptor recognition of a previously unseen peptide/MHC complex. In contrast to the ras5-14 sequence, ras4-12(V12) only partly shared the consensus motif for HLA-A2 binding, as the leucine anchor shifted from position 2 to 3. Importantly, the introduction of the mutated Val12 residue, as in the mouse, now created a dominant C-terminus anchor. […] (See FIG. 6).

Row | Substance | Sensitization of T2 targets for lysis (in words) [1] | T cell response induced by vaccination [2] | CD4+ proliferative response against immunizing 13-mer peptide [3] | Binding to HLA-A2 on T2 cells (in words) (human HLA-A2) | Generation of peptide-specific CTL line / lysis of peptide-pulsed targets (in words) [4] | Induction of CD8+ CTL responses in mouse (BALB/c mouse)
1 | Lys-Leu-Val-Val-Val-Gly-Ala-Asp-Gly-Val-Gly-Lys-Ser [ras5-17(Asp12)] | did not appear to induce cytotoxicity | led to peptide-specific CD8^+ CTL activation | No specific CD4^+ proliferative response was observed |  |  | 
2 | YKLVVVGAV [ras4-12(V12)] |  |  |  | specific, albeit weak, binding to HLA-A2 | A CD8^+ CTL line specific for ras4-12(V12) was then derived | resulted in the induction of MHC class I-restricted CD8^+ CTL responses
